The test system of the experiment is Macrophage. Description: Inhibition of CD163 expression in human monocyte-derived macrophages at 30 uM for 24 hrs treated before IL10 challenge for 2 days by cell-ELISA. The format is functional, cell-based. A general note: An ELISA detects its analyte on a solid surface through an enzyme-linked reagent.

Activity calls are given as the source filed them. The calls are words filed in the database; no cut-off is given here.

`C/C=C/[C@H]1[C@H](C)[C@@H](C)[C@@H]([SH+][O-])[S+]1[O-]` (stereo partly specified): the result was Active.
